Data: PMC11992225, “Antibacterial compounds against non-growing and intracellular bacteria” (npj Antimicrobials and Resistance, 2025)
Values joined by “and” are separate entries in the source; they are usually repeats but may differ in a detail not shown here. Identical values can stand only once. Like-named read-outs stand apart in the source and are kept apart here.

Experiments:
non-growing UPEC CFT073 [1] = assay: Dilution-regrowth assay (screen, hit validation, dose-response) on stationary-phase UPEC; assay type: cell-based, Escherichia coli; conditions: for OD600 at 6hr, Mean: after dilution into drug-free medium; for EC50: E. coli, regrowth delay of non-growing bacteria, 24 h treatment, OD600 6 h after 2500-fold dilution, read-out: EC50
Summary of the method: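 Regrowth (OD600 after 6 h, 37 °C) of diluted non-growing CFT073, following 24 h compound treatment of 24 h stationary cultures, defines activity relative to untreated control. Screen at 20 µM, validation at 20, 10, 5 µM (duplicates), dose–response in three biological replicates fitted by five-parameter logistic.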

[2] = system: non-growing S. aureus DSM2569; assay: Dose-dependent killing analysis (CFU spot-plating) of stationary-phase S. aureus; assay type: cell-based, Staphylococcus aureus; conditions: for Δlog10(CFU/ml): S. aureus, average killing vs before treatment (9,097)
Summary of the method: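 Survival was scored as CFU after overnight growth at 37 °C on LB agar, using spots from 10-fold PBS dilutions of treated cultures. Non-growing S. aureus DSM2569 had been exposed to compound for 24 h in 1:4 CA-MHB, pH 7.4. Three biological replicates were run.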

S. aureus DSM2569 = assay: MIC, standard microdilution assay, growing S. aureus; assay type: cell-based, Staphylococcus aureus; conditions: S. aureus
Summary of the method: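 Each strain was exposed to serially diluted compound in broth, in triplicate. The media were TSB for Shigella; CA-MHB at pH 7.4 (HEPES 40 mM) for S. aureus, P. aeruginosa and UPEC; and, for UPEC only, low-pH LPM (pH 5.5, 30 mM MES).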

non-growing UPEC CFT073 [3] = assay: Dose-dependent killing analysis (CFU spot-plating) of stationary-phase UPEC; assay type: cell-based, Escherichia coli
Summary of the method: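 Killing assessed by CFU counts: overnight 37 °C LB agar spot plates (10 μl drops of 10-fold PBS dilutions) scored at the lowest dilution with distinct colonies. Samples were compound-treated non-growing UPEC CFT073, 200 μl per well. Performed as three biological replicates.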

## Bleomycin
non-growing UPEC CFT073 [1]; E. coli in 1:4 CA-MHB (pH 7.4), 0.25 μM
  OD600 at 6hr, Mean: 0.585
non-growing UPEC CFT073 [1]; E. coli in 1:4 CA-MHB (pH 7.4), 0.5 μM
  OD600 at 6hr, Mean: 0.575
non-growing UPEC CFT073 [1]; E. coli in 1:4 CA-MHB (pH 7.4), 1 μM
  OD600 at 6hr, Mean: 0.327
non-growing UPEC CFT073 [1]; E. coli in 1:4 CA-MHB (pH 7.4), 2.5 μM
  OD600 at 6hr, Mean: 0.130
non-growing UPEC CFT073 [1]; E. coli in 1:4 CA-MHB (pH 7.4), 5 μM
  OD600 at 6hr, Mean: 0.073
non-growing UPEC CFT073 [1]; E. coli in 1:4 CA-MHB (pH 7.4), 10 μM
  OD600 at 6hr, Mean: 0.067
non-growing UPEC CFT073 [1]; E. coli in 1:4 CA-MHB (pH 7.4), 30 μM
  OD600 at 6hr, Mean: 0.076
non-growing UPEC CFT073 [1]; E. coli in LPM (pH 5.5), 0.25 μM
  OD600 at 6hr, Mean: 0.600
non-growing UPEC CFT073 [1]; E. coli in LPM (pH 5.5), 0.5 μM
  OD600 at 6hr, Mean: 0.583
non-growing UPEC CFT073 [1]; E. coli in LPM (pH 5.5), 1 μM
  OD600 at 6hr, Mean: 0.569
non-growing UPEC CFT073 [1]; E. coli in LPM (pH 5.5), 2.5 μM
  OD600 at 6hr, Mean: 0.559
non-growing UPEC CFT073 [1]; E. coli in LPM (pH 5.5), 5 μM
  OD600 at 6hr, Mean: 0.513
non-growing UPEC CFT073 [1]; E. coli in LPM (pH 5.5), 10 μM
  OD600 at 6hr, Mean: 0.348
non-growing UPEC CFT073 [1]; E. coli in LPM (pH 5.5), 30 μM
  OD600 at 6hr, Mean: 0.169
non-growing UPEC CFT073 [1]; LPM pH 5.5
  EC50: 9.49 µM
non-growing UPEC CFT073 [1]; pH 7.4, 1:4 CA-MHB
  EC50: 0.987 µM
[2]
  Log10(CFU/ml), Replicate #1: 6.114 Log10(CFU/ml) and 7.898 Log10(CFU/ml) and 8.934 Log10(CFU/ml) and 8.881 Log10(CFU/ml)
  Log10(CFU/ml), Replicate #2: 6.845 Log10(CFU/ml) and 8.447 Log10(CFU/ml) and 8.959 Log10(CFU/ml) and 9.255 Log10(CFU/ml)
  Log10(CFU/ml), Replicate #3: 6.863 Log10(CFU/ml) and 8.431 Log10(CFU/ml) and 8.778 Log10(CFU/ml) and 8.944 Log10(CFU/ml)
[2]; 0.1 μM
  Δlog10(CFU/ml): 0.070 log10(CFU/ml)
[2]; 0.5 μM
  Δlog10(CFU/ml): 0.206 log10(CFU/ml)
[2]; 2.5 μM
  Δlog10(CFU/ml): 0.838 log10(CFU/ml)
[2]; 10 μM
  Δlog10(CFU/ml): 2.490 log10(CFU/ml)
S. aureus DSM2569; 1:4 diluted CA-MHB pH 7.4
  MIC (μM) 1:4 CA-MHB: 3.125 µM
S. aureus DSM2569; CA-MHB pH 7.4, read-out: MIC (μM) CA-MHB
  MIC: 12.5 µM
non-growing UPEC CFT073 [3]; E. coli in 1:4 CA-MHB (pH 7.4), 0.25 μM, average killing vs before treatment (8.977)
  Δlog10(CFU/ml): 0.270 log10(CFU/ml)
non-growing UPEC CFT073 [3]; E. coli in 1:4 CA-MHB (pH 7.4), 0.5 μM, average killing vs before treatment (8.977)
  Δlog10(CFU/ml): 0.232 log10(CFU/ml)
non-growing UPEC CFT073 [3]; E. coli in 1:4 CA-MHB (pH 7.4), 1 μM, average killing vs before treatment (8.977)
  Δlog10(CFU/ml): 0.145 log10(CFU/ml)
non-growing UPEC CFT073 [3]; E. coli in 1:4 CA-MHB (pH 7.4), 2.5 μM, average killing vs before treatment (8.977)
  Δlog10(CFU/ml): 0.654 log10(CFU/ml)
non-growing UPEC CFT073 [3]; E. coli in 1:4 CA-MHB (pH 7.4), 5 μM, average killing vs before treatment (8.977)
  Δlog10(CFU/ml): 1.149 log10(CFU/ml)
non-growing UPEC CFT073 [3]; E. coli in 1:4 CA-MHB (pH 7.4), 10 μM, average killing vs before treatment (8.977)
  Δlog10(CFU/ml): 1.686 log10(CFU/ml)
non-growing UPEC CFT073 [3]; E. coli in LPM (pH 5.5), 0.25 μM, average killing vs before treatment (7.350)
  Δlog10(CFU/ml): 0.339 log10(CFU/ml)
non-growing UPEC CFT073 [3]; E. coli in LPM (pH 5.5), 0.5 μM, average killing vs before treatment (7.350)
  Δlog10(CFU/ml): 0.181 log10(CFU/ml)
non-growing UPEC CFT073 [3]; E. coli in LPM (pH 5.5), 1 μM, average killing vs before treatment (7.350)
  Δlog10(CFU/ml): 0.347 log10(CFU/ml)
non-growing UPEC CFT073 [3]; E. coli in LPM (pH 5.5), 2.5 μM, average killing vs before treatment (7.350)
  Δlog10(CFU/ml): 0.457 log10(CFU/ml)
non-growing UPEC CFT073 [3]; E. coli in LPM (pH 5.5), 5 μM, average killing vs before treatment (7.350)
  Δlog10(CFU/ml): 1.004 log10(CFU/ml)
non-growing UPEC CFT073 [3]; E. coli in LPM (pH 5.5), 10 μM, average killing vs before treatment (7.350)
  Δlog10(CFU/ml): 1.335 log10(CFU/ml)
non-growing UPEC CFT073 [3]; pH 5.5
  Log10(CFU/ml), Replicate #1: 5.301 Log10(CFU/ml) and 5.477 Log10(CFU/ml) and 6.204 Log10(CFU/ml) and 6.279 Log10(CFU/ml) and 6.491 Log10(CFU/ml) and 6.477 Log10(CFU/ml)
  Log10(CFU/ml), Replicate #2: 5.568 Log10(CFU/ml) and 6.114 Log10(CFU/ml) and 6.778 Log10(CFU/ml) (2×) and 6.903 Log10(CFU/ml) and 6.477 Log10(CFU/ml)
  Log10(CFU/ml), Replicate #3: 7.176 Log10(CFU/ml) and 7.447 Log10(CFU/ml) and 7.699 Log10(CFU/ml) and 7.954 Log10(CFU/ml) and 8.114 Log10(CFU/ml) and 8.079 Log10(CFU/ml)
non-growing UPEC CFT073 [3]; pH 7.4
  Log10(CFU/ml), Replicate #1: 7.903 Log10(CFU/ml) and 8.362 Log10(CFU/ml) and 8.903 Log10(CFU/ml) and 9.462 Log10(CFU/ml) and 9.362 Log10(CFU/ml) and 9.114 Log10(CFU/ml)
  Log10(CFU/ml), Replicate #2: 6.556 Log10(CFU/ml) and 7.279 Log10(CFU/ml) and 7.954 Log10(CFU/ml) and 8.778 Log10(CFU/ml) and 8.699 Log10(CFU/ml) and 8.301 Log10(CFU/ml)
  Log10(CFU/ml), Replicate #3: 7.415 Log10(CFU/ml) and 7.845 Log10(CFU/ml) and 8.114 Log10(CFU/ml) and 8.255 Log10(CFU/ml) and 8.176 Log10(CFU/ml)
